Data: patent US20140221301A1, “COMBINATION TREATMENT FOR CANCER” (priority 2011, published 2014)

Experiments:
[1] = tested on: XIAP, grp78; test: Immunoblotting of cytosolic-ribosome translated proteins; assay type: cell-based, human; conditions: TEX, OCI-AML2, primary AML cells
Method: FIG. 4. […] (A) Cells from TEX, OCI-AML2 and two primary AML patients were treated with increasing concentrations (2.5 μM and 5 μM) of tigecycline for 36 and 48 hours of tigecycline. Total proteins were extracted and analyzed by western blotting for Cox-1, Cox-2, Cox-4, grp78, XIAP, actin and tubulin. (B) TEX and AML patient cells were treated with increasing concentrations (2.5 μM and 5 μM) of tigecycline. Cox-1, Cox-2, and Cox-4 mRNA expression relative 18S was determined by quantitative RT-PCR. Data is shown as mean±SD. (C) TEX cells were treated with increasing concentrations of tigecycline and chloramphenicol (CAP) for 72 hours. Complex I, II and IV enzyme activity relative to citrate synthase activity was determined as described in materials and methods. (D) Cells from TEX, primary AML patients, and normal donors were treated with increasing concentrations of tigecycline. Mitochondrial membrane potential (ΔΨ) was determined by staining cells with JC-1 dye, and flow cytometry analysis (Red/Green ratio). Reactive oxygen species generation (ROS) was determined by staining with h2-DCFDA and Dihydroethidium (DHE).
Total cell lysates were prepared from cells as described previously^32. […] Protein concentrations were measured by the DC Protein assay. […]

[2] = tested on: primary AML patient samples; test: Methylcellulose colony formation assay, primary AML cells; assay type: cell-based, human; conditions: 5 μM, primary AML patient samples n=7, 7 days
Method: FIG. 2. Tigecycline induces cell death and inhibits clonogenic growth in primary AML cells preferential over normal hematopoietic cells. Mononuclear cells from peripheral blood of leukemia patients (blast count>80%) and normal G-CSF expanded donors was treated with increasing concentrations of tigecycline for 48 hours. Cell viability was measured by Annexin-PI flow cytometry staining. Cell viability is expressed as a mean percentage plus or minus SD (n=3) relative to DMSO-treated cells. Mononuclear cells from primary AML patient samples (A, B) and normal peripheral blood cells (C) were plated in methylcelluose with 5 μM of Tigecycline. (D) Colony forming units were counted at 7 days (AML) and 14 days (Normal) post plating. […]
To assess clonogenic growth, primary AML cells (1.0×10^5/mL) or granulocyte colony-stimulating factor (G-CSF) mobilized PBSCs (1.0×10^5/mL) were plated in duplicate with increasing concentrations of tigecycline in MethoCult GF H4434 medium (StemCell Technologies, Vancouver, BC) containing 1% methycellulose in IMDM, 30% FCS, 1% bovine serum albumin, 3 U/mL of recombinant human erythropoietin, 10^−4 M of 2-mercaptoethanol, 2 mM of L-glutamine, 50 ng/mL of recombinant human stem cell factor, 10 ng/mL of GM-CSF, and 10 ng/mL of rh IL-3). Seven days (AML samples) or 14 days (normal PBCS) after plating, the number of colonies was counted as previously described^31.

[3] = tested on: myeloma cell lines; test: Cell growth and viability, MTS assay, myeloma cell lines; assay type: cell-based; conditions: 72 hours
Method: FIG. 1. […] (A) TEX and (B) M9-ENL1 cells were plated in 96-well plates and drugs were added to the wells (5 μL per well) for final concentrations of 10 μM (shown) and 1 μM. Cell growth and viability was measured at 48 hours (M9-ENL-1) and 72 hours (TEX) by MTS assay. Cell viability is shown for each compound as a percent of cells treated with DMSO alone. (C) Leukemia, (D) myeloma, and (E) solid tumor cell lines were seeded in 96-well plates and then treated with increasing concentrations of tigecycline. Cell growth and viability was measured at 72 hours by MTS assay. Cell viability is expressed as mean percentage plus or minus SD (n=3) relative to vehicle-treated cells. […] Cell viability was measured at 72 hours by MTS assay. Cell viability is expressed as mean percentage plus or minus SD (n=3) relative to vehicle-treated cells.
Human leukemia (OCI-AML2, HL60, U937) cell lines were maintained in RPMI 1640 medium. Myeloma (LP-1, KMS11, 8226, JJN3, OP-M2) cell lines were maintained in Iscove's media. […]
Cell growth and viability was assessed by the MTS assay (Promega, Madison, Wis.) according to the manufacturer's instructions. Apoptosis and cell death was measured by Annexin V-fluroscein isothiocyanate (FITC; Biovision Research Products, Mountain View, Calif.), propidium iodide staining and flow cytometry according to the manufacturer's instructions and as previously described^30.

[4] = tested on: complex II; test: Respiratory chain enzyme activity relative to citrate synthase, complex II; assay type: cell-based, human; conditions: TEX cells, 2.5 μM and 5 μM, 72 hours
Method: FIG. 4. Tigecycline decreases mitochondrial Cox-1 protein levels in TEX cells. (A) Cells from TEX, OCI-AML2 and two primary AML patients were treated with increasing concentrations (2.5 μM and 5 μM) of tigecycline for 36 and 48 hours of tigecycline. Total proteins were extracted and analyzed by western blotting for Cox-1, Cox-2, Cox-4, grp78, XIAP, actin and tubulin. (B) TEX and AML patient cells were treated with increasing concentrations (2.5 μM and 5 μM) of tigecycline. Cox-1, Cox-2, and Cox-4 mRNA expression relative 18S was determined by quantitative RT-PCR. Data is shown as mean±SD. (C) TEX cells were treated with increasing concentrations of tigecycline and chloramphenicol (CAP) for 72 hours. Complex I, II and IV enzyme activity relative to citrate synthase activity was determined as described in materials and methods. […] Mitochondrial membrane potential (ΔΨ) was determined by staining cells with JC-1 dye, and flow cytometry analysis (Red/Green ratio). Reactive oxygen species generation (ROS) was determined by staining with h2-DCFDA and Dihydroethidium (DHE).
The effect of tigecycline treatment on enzyme activity of the respiratory chain complexes relative to the mitochondrial non-respiratory chain enzyme citrate synthase was examined. TEX leukemia cells were treated with tigecycline for […] and then respiratory chain enzyme relative to citrate synthase activity was analyzed. […]

Question: Which “expression of XIAP or grp78” value [1] does the source give for CN(C)c1cc(NC(=O)CNC(C)(C)C)c(O)c2c1C[C@H]1C[C@H]3[C@H](N(C)C)C(O)=C(C(N)=O)C(=O)[C@@]3(O)C(O)=C1C2=O [tigecycline] here?
Answer: did not alter

Question: What about the “reduction of clonogenic growth” value [2] of the same compound?
Answer: 93±4%

Question: And the IC50 [3]?
Answer: > 10 µM

Question: And the “complex II activity relative to citrate synthase” value [4]?
Answer: less affected
